Measured values as given in the NIST ThermoML archive (doi:10.1016/j.jct.2006.05.012).
± gives the expanded uncertainty stated by the source.

Tests used:
[1] = xn = mol fraction of the nth substance listed; conditions: 298.15 K, 101 kPa, Liquid
[2] = 298.15 K; 101 kPa; Liquid

C=C(C)C(=O)OC [methyl methacrylate] + Cc1ccccc1
[1]
Conditions | mass density [kg/m3]
x2 = 0 | 937.646 ± 0.12
x2 = 0.0249 | 935.719 ± 0.12
x2 = 0.0501 | 933.759 ± 0.13
x2 = 0.1005 | 929.859 ± 0.13
x2 = 0.15 | 926.06 ± 0.13
x2 = 0.1994 | 922.3 ± 0.13
x2 = 0.2497 | 918.45 ± 0.14
x2 = 0.3001 | 914.63 ± 0.14
x2 = 0.35 | 910.852 ± 0.14
x2 = 0.3998 | 907.089 ± 0.14
x2 = 0.4501 | 903.299 ± 0.15
x2 = 0.5 | 899.556 ± 0.15
x2 = 0.5501 | 895.803 ± 0.15
x2 = 0.5979 | 892.219 ± 0.16
x2 = 0.6486 | 888.421 ± 0.16
x2 = 0.6998 | 884.596 ± 0.16
x2 = 0.7499 | 880.84 ± 0.16
x2 = 0.794 | 877.532 ± 0.17
x2 = 0.8481 | 873.485 ± 0.17
x2 = 0.9 | 869.606 ± 0.17
x2 = 0.95 | 865.864 ± 0.17
x2 = 0.9731 | 864.133 ± 0.18

Cc1ccccc1 [toluene]
Conditions | mass density [kg/m3]
[2] | 862.11 ± 0.18

Cc1ccccc1 [toluene] + C=CC(=O)OCCCC
Conditions | mass density [kg/m3]
[1], x1 = 1 | 862.11 ± 0.18

Cc1ccccc1 [toluene] + C=C(C)C(=O)OC
Conditions | mass density [kg/m3]
[1], x1 = 1 | 862.11 ± 0.18

C=CC(=O)OCCCC [butyl 2-propenoate]
Conditions | mass density [kg/m3]
[2] | 893.96 ± 0.15

C=C(C)C(=O)OC [methyl methacrylate]
Conditions | mass density [kg/m3]
[2] | 937.65 ± 0.12

C=CC(=O)OCCCC [butyl 2-propenoate] + Cc1ccccc1
[1]
Conditions | mass density [kg/m3]
x2 = 0 | 893.955 ± 0.15
x2 = 0.0255 | 893.406 ± 0.15
x2 = 0.0508 | 892.895 ± 0.15
x2 = 0.0999 | 891.775 ± 0.16
x2 = 0.1509 | 890.523 ± 0.16
x2 = 0.2006 | 889.277 ± 0.16
x2 = 0.2506 | 887.998 ± 0.16
x2 = 0.2996 | 886.7 ± 0.16
x2 = 0.3597 | 885.033 ± 0.16
x2 = 0.4006 | 883.858 ± 0.16
x2 = 0.4504 | 882.402 ± 0.16
x2 = 0.5015 | 880.847 ± 0.16
x2 = 0.55 | 879.307 ± 0.17
x2 = 0.6006 | 877.659 ± 0.17
x2 = 0.6502 | 875.977 ± 0.17
x2 = 0.7003 | 874.219 ± 0.17
x2 = 0.7501 | 872.408 ± 0.17
x2 = 0.8 | 870.53 ± 0.17
x2 = 0.8499 | 868.551 ± 0.17
x2 = 0.9001 | 866.487 ± 0.17
x2 = 0.95 | 864.338 ± 0.18
x2 = 0.9751 | 863.216 ± 0.18

C=C(C)C(=O)OC [methyl methacrylate] + C=CC(=O)OCCCC
Conditions | mass density [kg/m3]
[1], x2 = 0 | 937.65 ± 0.12

C=CC(=O)OCCCC [butyl 2-propenoate] + C=C(C)C(=O)OC
[1]
Conditions | mass density [kg/m3]
x1 = 0.025 | 936.15 ± 0.12
x1 = 0.0501 | 934.64 ± 0.13
x1 = 0.1001 | 931.77 ± 0.13
x1 = 0.1502 | 929.01 ± 0.13
x1 = 0.2 | 926.33 ± 0.13
x1 = 0.25 | 923.76 ± 0.13
x1 = 0.2946 | 921.53 ± 0.13
x1 = 0.3498 | 918.85 ± 0.14
x1 = 0.3992 | 916.57 ± 0.14
x1 = 0.45 | 914.28 ± 0.14
x1 = 0.4999 | 912.12 ± 0.14
x1 = 0.5499 | 910.04 ± 0.14
x1 = 0.5999 | 908.01 ± 0.14
x1 = 0.644 | 906.27 ± 0.15
x1 = 0.6991 | 904.19 ± 0.15
x1 = 0.7499 | 902.33 ± 0.15
x1 = 0.8002 | 900.52 ± 0.15
x1 = 0.8504 | 898.81 ± 0.15
x1 = 0.8994 | 897.15 ± 0.15
x1 = 0.9499 | 895.53 ± 0.15
x1 = 0.9749 | 894.72 ± 0.15
x1 = 1 | 893.96 ± 0.15
